SMILES strings stand for the structures.

The target in the assay is T1, human M1 receptor (hCHRM1) (Homo sapiens, UniProt P11229).
T1 construct: expressed in transfected cells
T1 sequence (P11229 1-460): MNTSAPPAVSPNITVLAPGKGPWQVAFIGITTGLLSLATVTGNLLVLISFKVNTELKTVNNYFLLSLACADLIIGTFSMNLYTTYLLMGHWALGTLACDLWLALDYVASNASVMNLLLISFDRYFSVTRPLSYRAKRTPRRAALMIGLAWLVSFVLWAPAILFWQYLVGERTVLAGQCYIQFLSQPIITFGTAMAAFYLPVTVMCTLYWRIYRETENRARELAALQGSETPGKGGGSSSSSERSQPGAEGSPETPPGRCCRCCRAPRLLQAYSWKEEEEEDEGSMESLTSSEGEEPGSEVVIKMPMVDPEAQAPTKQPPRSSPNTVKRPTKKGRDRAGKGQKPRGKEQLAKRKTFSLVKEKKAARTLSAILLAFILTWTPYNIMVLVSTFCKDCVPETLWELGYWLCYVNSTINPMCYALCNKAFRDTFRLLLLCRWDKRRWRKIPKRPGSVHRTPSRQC
The experiment in a line: Measurement of M1 receptor positive allosteric modulator (M1PAM) activity, calcium fluorescence (FLIPRtetra) with acetylcholine at EC20. The class given is cell-based. The following applies: for activity (%) at 10 μM: 10 μM test compound, 100% = acetylcholine 1 μM, 0% = DMSO, acetylcholine at EC20; for EC50: inflection point of concentration-dependent curve, CHO-K1 cells expressing hCHRM1, acetylcholine at EC20 (final 0.6-0.8 nM), read-out: IP value. As to the method:
The activity of a test compound in the presence of acetylcholine at EC20 concentration (final concentration 0.6-0.8 nM), which affords an action corresponding to about 20% of the maximum activity, was measured as PAM activity. The method is as follows. CHO-K1 cells stably expressing a human M1 receptor (hCHRM1) were plated on a 384-well black clear bottom plate (BD Falcon) at 5,000 cells/well, and cultured in an incubator at 37° C., 5% CO2 for 1 day. The medium in the cell plate was removed, and assay buffer A (Recording medium (DOJINDO LABORATORIES), 0.1% BSA (Wako Pure Chemical Industries, Ltd.), 2.5 μg/mL Fluo-4 AM (DOJINDO LABORATORIES), 0.08% Pluronic F127 (DOJINDO LABORATORIES), 1.25 mM probenecid (DOJINDO LABORATORIES)) containing a calcium indicator was added at 30 μL/well. The cells were left standing in the incubator at 37° C., 5% CO2 for 30 min, and further left standing at room temperature for 30 min. A test compound prepared by diluting with assay buffer B (HBSS (Invitrogen), 20 mM HEPES (Invitrogen), 0.1% BSA) containing 2.4-3.2 nM acetylcholine was added at 10 μL/well, and the fluorescence was measured by FLIPRtetra (Molecular Devices) for 1 min every 1 second. With the definition that the amount of change in the fluorescence on addition of acetylcholine (final concentration 1 μM) is 100% and that on addition of DMSO instead of a test compound is 0%, the activity (%) of the test compound was calculated, and the inflection point in the concentration-dependent curve of the test compound was calculated as IP values.

For `Cc1c(Cc2ccc(Cl)cc2)cc2c(c1C)CN([C@H]1COCC[C@@H]1O)C2=O` [Example 17, 1,5-anhydro-2-(6-(4-chlorobenzyl)-4,5-dimethyl-1-oxo-1,3-dihydro-2H-isoindol-2-yl)-2,4-dideoxy-L-threo-pentitol], the “activity (%) at 10 μM” value is 90% and the EC50 was 18 nM.

In the case of `Cc1cc2c(cc1Cc1ccc(-c3cnn(C)c3)cc1)C(=O)N(CC1CCCO1)C2` (stereo not shown) [Example 68, 5-methyl-6-(4-(1-methyl-1H-pyrazol-4-yl)benzyl)-2-(tetrahydrofuran-2-ylmethyl)isoindolin-1-one], the “activity (%) at 10 μM” value is on record as 95% and the EC50 came to 96 nM.

Take `COc1ccc(Cc2cc3c(c(F)c2OC)CN([C@H]2COCC[C@@H]2O)C3=O)cc1` [Example 157]: the “activity (%) at 10 μM” value is 97% and the EC50 came out at 84 nM.

With `CCc1cc2c(cc1Cc1ccc(-c3ccn(C)n3)cc1)C(=O)N([C@H]1CCC[C@@H]1O)C2` [Example 120, 5-ethyl-2-((1S,2S)-2-hydroxycyclopentyl)-6-(4-(1-methyl-1H-pyrazol-3-yl)benzyl)isoindolin-1-one], the “activity (%) at 10 μM” value is on record as 93% and the EC50 came out at 25 nM.

Consider `Cc1c(Cc2ccc(-c3ccn(C)n3)cc2)cc2c(c1C)CN(CC1CCCO1)C2=O` (stereo not shown) [Example 85, 4,5-dimethyl-6-(4-(1-methyl-1H-pyrazol-3-yl)benzyl)-2-(tetrahydrofuran-2-ylmethyl)isoindolin-1-one], for which the “activity (%) at 10 μM” value was 105% and the EC50 stood at 41 nM.

Turning to `CCc1cc2c(cc1Cc1ccc(-c3cn(C)nn3)cc1)C(=O)N([C@H]1CCC[C@@H]1O)C2` [Example 119, 5-ethyl-2-((1S,2S)-2-hydroxycyclopentyl)-6-(4-(1-methyl-1H-1,2,3-triazol-4-yl)benzyl)isoindolin-1-one], the “activity (%) at 10 μM” value was 91% and the EC50 amounted to 3.1 nM.

As for `Cc1c(Cc2ccc(-c3ccn(C)n3)cc2)cc2c(c1C)CN([C@H]1CCCC[C@@H]1O)C2=O` (racemic) [Example 82, rac-2-(trans-2-hydroxycyclohexyl)-4,5-dimethyl-6-(4-(1-methyl-1H-pyrazol-3-yl)benzyl)isoindolin-1-one], the “activity (%) at 10 μM” value was determined as 91% and the EC50 worked out at 5.7 nM.

Consider `COc1c(Cc2ccc(-n3cccn3)cc2)cc2c(c1Cl)CN([C@H]1CCCC[C@@H]1O)C2=O` (racemic) [Example 12, rac-4-chloro-2-(trans-2-hydroxycyclohexyl)-5-methoxy-6-(4-(1H-pyrazol-1-yl)benzyl)isoindolin-1-one], for which the “activity (%) at 10 μM” value is recorded as 91% and the EC50 amounted to 7.7 nM.

On to `Cc1cc2c(cc1Cc1ccc(-c3ccn(C)n3)nc1)C(=O)N([C@H]1CCCC[C@@H]1O)C2` (racemic) [Example 42, rac-2-(trans-2-hydroxycyclohexyl)-5-methyl-6-((6-(1-methyl-1H-pyrazol-3-yl)pyridin-3-yl)methyl)isoindolin-1-one], for which the “activity (%) at 10 μM” value worked out at 115% and the EC50 turned out to be 9.2 nM.

Regarding `Cc1cc2c(cc1Cc1ccc(-n3cccn3)cc1)C(=O)N([C@H]1CCC[C@@H]1O)C2` (racemic) [Example 33, rac-2-(trans-2-hydroxycyclopentyl)-5-methyl-6-(4-(1H-pyrazol-1-yl)benzyl)isoindolin-1-one], the “activity (%) at 10 μM” value stood at 95% and the EC50 is 37 nM.

Consider `Cc1cc2c(cc1Cc1ccc(-c3cn(C)nc3C)nc1)C(=O)N([C@H]1CCC[C@@H]1O)C2` (racemic) [Example 40, rac-6-((6-(1,3-dimethyl-1H-pyrazol-4-yl)pyridin-3-yl)methyl)-2-(trans-2-hydroxycyclopentyl)-5-methylisoindolin-1-one], for which the “activity (%) at 10 μM” value was 97% and the EC50 came to 37 nM.

Turning to `Cc1cc2c(cc1Cc1ccc(-c3cn(C)nc3C)cc1)C(=O)N([C@H]1CCC[C@@H]1O)C2` (racemic) [Example 55, rac-6-(4-(1,3-dimethyl-1H-pyrazol-4-yl)benzyl)-2-(trans-2-hydroxycyclopentyl)-5-methylisoindolin-1-one], the “activity (%) at 10 μM” value was determined as 101% and the EC50 came out at 98 nM.

With `COc1c(Cc2ccc(-n3cccn3)cc2)cc2c(c1Cl)CN([C@H]1CCC[C@@H]1O)C2=O` (racemic) [Example 92, rac-4-chloro-2-(trans-2-hydroxycyclopentyl)-5-methoxy-6-(4-(1H-pyrazol-1-yl)benzyl)isoindolin-1-one], the “activity (%) at 10 μM” value is recorded as 91% and the EC50 stood at 60 nM.

In the case of `CNC(=O)c1ccc(Cc2cc3c(c(C)c2C)CN([C@H]2COCC[C@@H]2O)C3=O)cc1F` [Example 19, 1,5-anhydro-2,4-dideoxy-2-(6-(3-fluoro-4-(methylcarbamoyl)benzyl)-4,5-dimethyl-1-oxo-1,3-dihydro-2H-isoindol-2-yl)-L-threo-pentitol], the “activity (%) at 10 μM” value worked out at 101% and the EC50 came to 2 nM.

Take `Cc1c(Cc2ccc(-c3cnn(C)c3)cc2)cc2c(c1C)CN(CC1CCCO1)C2=O` (stereo not shown) [Example 84, 4,5-dimethyl-6-(4-(1-methyl-1H-pyrazol-4-yl)benzyl)-2-(tetrahydrofuran-2-ylmethyl)isoindolin-1-one]: the “activity (%) at 10 μM” value amounted to 104% and the EC50 was found to be 52 nM.

`Cc1c(Cc2ccc(-n3cccn3)cc2)cc2c(c1Cl)CN([C@H]1CCCC[C@@H]1O)C2=O` (racemic) [Example 93, rac-4-chloro-2-(trans-2-hydroxycyclohexyl)-5-methyl-6-(4-(1H-pyrazol-1-yl)benzyl)isoindolin-1-one]: the “activity (%) at 10 μM” value amounted to 94% and the EC50 came out at 5.6 nM.

Regarding `Cn1cc(-c2ccc(Cc3cc4c(cc3C3CC3)CN([C@H]3CCC[C@@H]3O)C4=O)cc2)nn1` (racemic) [Example 64, rac-5-cyclopropyl-2-(trans-2-hydroxycyclopentyl)-6-(4-(1-methyl-1H-1,2,3-triazol-4-yl)benzyl)isoindolin-1-one], the “activity (%) at 10 μM” value is 104% and the EC50 came to 22 nM.

As to `Cc1c(Cc2ccc(-n3cccn3)cc2F)cc2c(c1C)CN([C@H]1CCC[C@@H]1O)C2=O` [Example 16, 6-(2-fluoro-4-(1H-pyrazol-1-yl)benzyl)-2-((1S,2S)-2-hydroxycyclopentyl)-4,5-dimethylisoindolin-1-one], the “activity (%) at 10 μM” value is recorded as 94% and the EC50 is 12 nM.

In the case of `CCc1cc2c(cc1Cc1ccc(-c3cn(C)nn3)cc1)C(=O)N([C@H]1CCC[C@@H]1O)C2` (racemic) [Example 106, rac-5-ethyl-2-(trans-2-hydroxycyclopentyl)-6-(4-(1-methyl-1H-1,2,3-triazol-4-yl)benzyl)isoindolin-1-one], the “activity (%) at 10 μM” value amounted to 92% and the EC50 came out at 11 nM.

As to `Cc1nn(C)cc1-c1ccc(Cc2cc3c(c(C)c2C)CN([C@H]2CCC[C@@H]2O)C3=O)c(F)c1` (racemic) [Example 95, rac-6-(4-(1,3-dimethyl-1H-pyrazol-4-yl)-2-fluorobenzyl)-2-(trans-2-hydroxycyclopentyl)-4,5-dimethylisoindolin-1-one], the “activity (%) at 10 μM” value turned out to be 92% and the EC50 worked out at 26 nM.

Turning to `Cc1c(Cc2ccc(-n3cccn3)cc2)cc2c(c1C)CN([C@H]1CCC[C@@H]1O)C2=O` (racemic) [Example 34, rac-2-(trans-2-hydroxycyclopentyl)-4,5-dimethyl-6-(4-(1H-pyrazol-1-yl)benzyl)isoindolin-1-one], the “activity (%) at 10 μM” value came to 108% and the EC50 is 18 nM.

As to `Cc1c(Cc2ccc(-c3cn(C)nn3)cc2)cc2c(c1C)CN(C[C@H]1CCCO1)C2=O` [Example 110, 4,5-dimethyl-6-(4-(1-methyl-1H-1,2,3-triazol-4-yl)benzyl)-2-((2R)-tetrahydrofuran-2-ylmethyl)isoindolin-1-one], the “activity (%) at 10 μM” value was 77% and the EC50 worked out at 24 nM.

In the case of `Cc1cc2c(cc1Cc1ccc(-c3cn(C)nc3C)nc1)C(=O)N([C@H]1CCCC[C@@H]1O)C2` (racemic) [Example 5, rac-6-((6-(1,3-dimethyl-1H-pyrazol-4-yl)pyridin-3-yl)methyl)-2-(trans-2-hydroxycyclohexyl)-5-methylisoindolin-1-one], the “activity (%) at 10 μM” value was 102% and the EC50 is 8.2 nM.

For the origin of these results see US9315458B2, “Nitrogen-containing heterocyclic compound” (Takeda Pharmaceutical Company Limited, priority 2014, dated 2016).
